# Structures can show the parent of a compound that is named as a salt.
# Target: T1, human MCH1 receptor (Homo sapiens, UniProt Q99705)
# T1 construct: host or cells: CHO cells (assay I)
# Experiment: MCH1 binding assay I or II (radioligand binding, membranes of CHO cells expressing the receptor)
# Details: estimated based on the measured percent inhibition
# Source text: Binding Assay I for Human Melanin-Concentrating Hormone (MCH1) Receptor
# Evaluation of the affinity of compounds for the human MCH1 receptor was accomplished in transfected Chinese Hamster Ovary (CHO) cells determined in a radioligand binding assay, as described in MacDonald et al., “Molecular characterization of the melanin-concentrating hormone/receptor complex: identification of critical residues involved in binding and activation”, Mol Pharmacol., 58:217 (2000). […] Nonspecific binding was determined in the presence of 0.1 μM MCH. […] The filters were dried, then counted for radioactivity in a scintillation counter (Topcount, Packard) using a scintillation cocktail (Microscint 0, Packard).
# The results are expressed as a percent inhibition of the control radioligand specific binding. The IC50 value (concentration causing a half-maximal inhibition of control specific binding) and Hill coefficient (nH) were determined by non-linear regression analysis of the competition curve using Hill equation curve fitting. The inhibition constant (Ki) was calculated from the Cheng Prusoff equation: (Ki=IC50/(1+(L/KD)), where L=concentration of radioligand in the assay, and KD=affinity of the radioligand for the receptor). […]
# The results are expressed as a percent inhibition of the control radioligand specific binding. […]
# T1 sequence (Q99705 whole entry): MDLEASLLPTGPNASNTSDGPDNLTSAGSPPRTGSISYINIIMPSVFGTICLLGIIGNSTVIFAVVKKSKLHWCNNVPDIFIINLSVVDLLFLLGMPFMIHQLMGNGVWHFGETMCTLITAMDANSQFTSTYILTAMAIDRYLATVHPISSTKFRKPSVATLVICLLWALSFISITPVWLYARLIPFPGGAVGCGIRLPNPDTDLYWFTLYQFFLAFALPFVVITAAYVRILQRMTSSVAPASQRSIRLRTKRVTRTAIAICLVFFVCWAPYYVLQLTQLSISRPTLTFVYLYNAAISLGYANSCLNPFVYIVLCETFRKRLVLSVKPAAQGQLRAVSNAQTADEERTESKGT
row,Ki [µM],SMILES
1,~3,"COc1ccc2c(c1)cc(-c1ccn(-c3ccc4c(cnn4CCN4CCCC4)c3)c(=O)c1)n2C [Example 65, 4-(5-Methoxy-1-methyl-1H-indol-2-yl)-1-(1-(2-(pyrrolidin-1-yl)ethyl)-1H-indazol-5-yl)pyridin-2(1H)-one dihydrochloride]"

# System: not given
# Experiment: not given
# Details: not given
row,melting point,SMILES
1,240 to 246 °C,Cc1ccc(-c2ccn(-c3ccc4c(cnn4CCN4CCCC4)c3)c(=O)c2)cc1.Cl
2,202 to 209 °C,Cl.O=c1cc(-c2ccc(OC(F)(F)F)cc2)ccn1-c1ccc2c(cnn2CCN2CCCC2)c1
3,92 to 96 °C,Cl.N#Cc1ccc(-c2ccn(-c3ccc4c(cnn4CCN4CCCC4)c3)c(=O)c2)cc1
4,105 to 110 °C,COc1ccc(-c2ccn(-c3ccc4c(cnn4CCN4CCCC4)c3)c(=O)c2)cc1.Cl
5,81 to 86 °C,Cl.N#Cc1cc(F)ccc1-c1ccn(-c2ccc3c(cnn3CCN3CCCC3)c2)c(=O)c1
6,255 to 260 °C (dec.),Cl.O=c1cc(-c2ccc(Cl)cc2)ccn1-c1ccc2c(cnn2CCN2CCCC2)c1
7,95 to 115 °C,COc1ccc(-c2ccn(-c3ccc4c(cnn4CCN4CCCC4)c3)c(=O)c2)c(OC)c1.Cl
8,235 to 255 °C,Cl.O=c1cc(-c2ccc(F)cc2F)ccn1-c1ccc2c(cnn2CCN2CCCC2)c1
9,235 to 250 °C,CC(C)Oc1ccc(-c2ccn(-c3ccc4c(cnn4CCN4CCCC4)c3)c(=O)c2)cc1.Cl
10,235 to 245 °C,Cl.O=c1cc(-c2ccc(C(F)(F)F)cc2C(F)(F)F)ccn1-c1ccc2c(cnn2CCN2CCCC2)c1
11,80 to 95 °C,CCCCOc1ccc(-c2ccn(-c3ccc4c(cnn4CCN4CCCC4)c3)c(=O)c2)c(C)c1.Cl
12,80 to 95 °C,Cc1ccccc1-c1ccn(-c2ccc3c(cnn3CCN3CCCC3)c2)c(=O)c1.Cl
13,75 to 85 °C,Cc1cc(OCc2ccccc2)ccc1-c1ccn(-c2ccc3c(cnn3CCN3CCCC3)c2)c(=O)c1.Cl
14,248 to 256 °C,COc1cc(Cl)ccc1-c1ccn(-c2ccc3c(cnn3CCN3CCCC3)c2)c(=O)c1.Cl
15,75 to 85 °C,Cl.O=c1cc(-c2ccc3c(c2)OCO3)ccn1-c1ccc2c(cnn2CCN2CCCC2)c1
16,205 to 215 °C,COc1ccc(-c2ccn(-c3ccc4c(cnn4CCN4CCCC4)c3)c(=O)c2)c(C)c1.Cl
17,260 to 264 °C,Cl.O=c1cc(-c2cc3ccccc3s2)ccn1-c1ccc2c(cnn2CCN2CCCC2)c1
18,230 to 234 °C,Cc1ccc(-c2ccn(-c3ccc4c(cnn4CCN4CCCC4)c3)c(=O)c2)nc1.Cl
19,248 to 250 °C (dec.),Cl.O=c1cc(-c2ccc(C(F)(F)F)cc2)ccn1-c1ccc2c(cnn2CCN2CCOCC2)c1
20,256 to 260 °C,Cl.O=c1cc(-c2cc3ccccc3o2)ccn1-c1ccc2c(cnn2CCN2CCCC2)c1
21,222 to 224 °C,CN(C)CCn1ncc2cc(-n3ccc(-c4ccc(C(F)(F)F)cc4)cc3=O)ccc21.Cl
22,222 to 224 °C (dec.),Cl.O=c1cc(-c2ccc(C(F)(F)F)cc2)ccn1-c1ccc2c(cnn2CCN2CCNCC2)c1
23,209 to 211 °C,CN(C)CCCn1ncc2cc(-n3ccc(-c4ccc(C(F)(F)F)cc4)cc3=O)ccc21.Cl
24,222 to 224 °C (dec.),Cl.NCCCn1ncc2cc(-n3ccc(-c4ccc(C(F)(F)F)cc4)cc3=O)ccc21

row,melting point,SMILES
1,241 to 245 °C,Cl.O=c1cc(-c2ccc(C(F)(F)F)cc2)ccn1-c1ccc2c(cnn2C[C@@H]2CCCN2)c1
2,210 to 213 °C,CN(C)C[C@@H](O)Cn1ncc2cc(-n3ccc(-c4ccc(C(F)(F)F)cc4)cc3=O)ccc21.Cl
3,116 to 119 °C,Cl.O=c1cc(-c2ccc(C(F)(F)F)cc2)ccn1-c1ccc2c(cnn2C[C@H](O)CN2CCCC2)c1
4,115 to 120 °C,Cl.O=c1cc(-c2ccc(F)cc2)ccn1-c1ccc2c(cnn2CCN2CCCC2)c1
5,148 to 150 °C,Cl.O=c1cc(-c2ccc(C(F)(F)F)cc2)ccn1-c1ccc2c(cnn2CCN2CC3CC2CO3)c1 (stereo not shown)
6,215 to 230 °C,Cl.O=c1cc(-c2ccc(Cl)cc2F)ccn1-c1ccc2c(cnn2CCN2CCCC2)c1
7,80 to 95 °C,Cl.O=c1cc(-c2ccc(C(F)(F)F)cc2F)ccn1-c1ccc2c(cnn2CCN2CCCC2)c1
8,230 to 240 °C,COc1ccc(-c2ccn(-c3ccc4c(cnn4CCN4CCCC4)c3)c(=O)c2)c(F)c1.Cl
9,225 to 235 °C,COc1ccc(-c2ccn(-c3ccc4c(cnn4CCN4CCCC4)c3)c(=O)c2)c(Cl)c1.Cl
10,255 to 265 °C,CCOc1ccc(-c2ccn(-c3ccc4c(cnn4CCN4CCCC4)c3)c(=O)c2)cc1.Cl
11,215 to 225 °C,Cl.O=c1cc(-c2ccc(OC(F)(F)F)cc2F)ccn1-c1ccc2c(cnn2CCN2CCCC2)c1
12,185 to 195 °C,Cc1cc(OC(F)(F)F)ccc1-c1ccn(-c2ccc3c(cnn3CCN3CCCC3)c2)c(=O)c1.Cl
13,128 to 134 °C,Cl.O=c1cc(-c2ccc3ccccc3c2)ccn1-c1ccc2c(cnn2CCN2CCCC2)c1
14,55 to 65 °C,Cl.Cn1ncc2cc(-c3ccn(-c4ccc5c(cnn5CCN5CCCC5)c4)c(=O)c3)ccc21
15,110 to 120 °C,Cl.O=c1cc(-c2ccc(C(F)(F)F)cn2)ccn1-c1ccc2c(cnn2CCCN2CCCC2)c1
16,80 to 90 °C,Cl.O=c1cc(-c2ccc(N3CCCCC3)cc2)ccn1-c1ccc2c(cnn2CCN2CCCC2)c1
17,270 to 280 °C,Cc1ccc2oc(-c3ccn(-c4ccc5c(cnn5CCN5CCCC5)c4)c(=O)c3)nc2c1.Cl
18,275 to 280 °C,COc1ccc2[nH]c(-c3ccn(-c4ccc5c(cnn5CCN5CCCC5)c4)c(=O)c3)cc2c1.Cl
19,271 to 275 °C,Cl.O=c1cc(-c2ccc(-n3cccn3)cc2)ccn1-c1ccc2c(cnn2CCN2CCCC2)c1
20,256 to 260 °C,CC1CC=C(c2ccn(-c3ccc4c(cnn4CCN4CCCC4)c3)c(=O)c2)CC1.Cl (stereo not shown)
21,80 to 85 °C,CC1CCC(c2ccn(-c3ccc4c(cnn4CCN4CCCC4)c3)c(=O)c2)CC1.Cl (stereo not shown)
22,118 to 125 °C,Cl.O=c1cc(-c2cccc(Cl)c2)ccn1-c1ccc2c(cnn2CCN2CCCC2)c1
23,128 to 133 °C,O=c1cc(-c2cccc3ccccc23)ccn1-c1ccc2c(cnn2CCN2CCCC2)c1 (as salt: hydrochloride)
24,220 to 225 °C,O=c1cc(-c2ccc3ccccc3n2)ccn1-c1ccc2c(cnn2CCN2CCCC2)c1 (as salt: hydrochloride)

# From US8273770B2, “5-pyridinone substituted indazoles” (Albany Molecular Research, Inc., priority 2007, dated 2012)
